Results published in patent publication US5025036A, “Catechol carboxylic acids” (Hoffmann-La Roche Inc., priority 1989, dated 1991).
pIC50: −log10 of the molar value.

Legend:
[1] = target: T1, Δ^5 -lipoxygenase from rat basophilic leukemia (RBL-1) cells (Rattus norvegicus, UniProt P12527); assay: In vitro test for Δ^5-lipoxygenase inhibitors (5-HETE radioimmunoassay); format: biochemical; settings: for inhibition at 0.1 µM: read-out: Inhib. of Δ^5 Lipoxygenase, % inhibition at 0.1 μM; for pIC50: RBL-1 5-LO, 5-HETE formation, read-out: Inhib. of Δ^5 Lipoxygenase IC50; for inhibition at 1 µM: read-out: Inhib. of Δ^5 Lipoxygenase, % inhibition at 1 μM
T1 construct: The isolated cytosolic fraction was stored in liquid N2 for up to 8 weeks without loss of 5-LO enzyme activity; endogenous in cells; host or cells: RBL-1 cells (ATCC CRL 1378), 113,000×g supernatant (cytosol)
T1 sequence (P12527 1-673): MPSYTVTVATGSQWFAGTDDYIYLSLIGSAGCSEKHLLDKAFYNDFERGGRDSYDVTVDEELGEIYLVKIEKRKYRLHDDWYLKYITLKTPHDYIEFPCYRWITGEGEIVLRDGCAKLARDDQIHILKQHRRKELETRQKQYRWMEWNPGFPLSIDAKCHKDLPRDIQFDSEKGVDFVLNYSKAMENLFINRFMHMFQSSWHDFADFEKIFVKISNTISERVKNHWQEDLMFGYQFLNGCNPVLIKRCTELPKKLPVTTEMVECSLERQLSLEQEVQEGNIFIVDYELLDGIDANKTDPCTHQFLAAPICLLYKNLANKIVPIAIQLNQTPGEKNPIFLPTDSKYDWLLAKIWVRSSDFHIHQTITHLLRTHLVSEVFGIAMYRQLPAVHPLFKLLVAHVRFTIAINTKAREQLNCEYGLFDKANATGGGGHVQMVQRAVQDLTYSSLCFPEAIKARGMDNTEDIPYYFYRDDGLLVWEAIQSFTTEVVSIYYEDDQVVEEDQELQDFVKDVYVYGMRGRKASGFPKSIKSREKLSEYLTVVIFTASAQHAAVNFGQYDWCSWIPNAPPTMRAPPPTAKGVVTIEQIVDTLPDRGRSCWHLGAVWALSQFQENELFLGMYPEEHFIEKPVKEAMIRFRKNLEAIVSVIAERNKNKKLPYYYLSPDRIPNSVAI
Description: RBL-1 cells (CRL 1378) were obtained from the American Type Culture Collection, Rockville, MD. DMEM and glutamine were purchased from Flow Labs, McLean, Va. FBS (Gibco, Grand Island, N.Y.) was heat-inactivated for 1 hour at 56° C. Reagents for protein determinations were obtained from Biorad, Rockville Center, N.Y. Arachidonic acid (approx. 99%), ATP (disodium salt), BHT, dextran (clinical grade), tetrasodium EDTA, gelatin, gentamycin sulfate solution, reduced glutathione, 1 M HEPES buffer, indomethacin, NaCl, reduced NADPH, Trizma 7.2, and Trizma 8.5 were purchased from Sigma Chemical, St. Louis, Mo. CaCL2 dihydrate, Norit A charcoal, and citric acid monohydrate were obtained from Fisher Scientific, Pittsburgh, Pa. […] A synthetic 5-HETE standard was supplied by Dr. M. Rosenberger, Dept. of Medicinal Chemistry, Hoffmann La-Roche, Nutley, N.J.; [see Corey, E. J., and Hashimoto, S. (1981) Tet. […] Approximately 7-9 days after thawing, RBL-1 cells growing in log phase were seeded at a density of 7500 viable cells/ml in a closed 89-liter spinner flask. […] RBL-1 cells were harvested by centrifugation at 4° C. at 1500×g for 10 minutes and were washed 3 times with ice cold 0.05M tris-hCl, pH 7.2, tetrasodium EDTA (buffer 1). The cells were washed last in 0.05M Tris-HCl containing 14 μM indomethacin, 1 mM glutathione, 1.5 mM NaCl, and 1 mM tetrasodium EDTA (buffer 2), resuspended at a density of 5×108'/ml approximately 10 ml) and disrupted manually at 4° C. using a 40 ml Dounce (type A pestle) homogenizer. After 5 minutes of homogenization, 95% cell lysis was confirmed by phase contrast microscopy. The broken cells were diluted 1:2 with buffer 2 and centrifuged at 12,380×g for 10 minutes at 4° C. to pellet cellular debris and granules. The 12,380×g supernatant was centrifuged at 113,000×g for 60 minutes to pellet microsomes. The high-speed supernatant (5.9±0.48 mg/ml protein) was frozen immediately in 1 ml aliquots using a dry ice/acetone bath. The isolated cytosolic fraction was stored in liquid N2 for up to 8 weeks without loss of 5-LO enzyme activity. Compounds were dissolved at 25 mM concentration in DMSO, then diluted to final concentrations using 95% ethanol. For a typical enzyme assay, the partially purified 5-LO preparation was preincubated with drug or vehicle for 10 minutes at 30° C. The assay tubes were then transferred at a 37° C. water bath where they received arachidonic acid (8.25 μM final concentration) to initiate 5-LO activity. […] The samples were immediately cooled on ice and neutralized by dilution with 0.05M Tris-HCl, pH 8.5, which contained 25 mg/1 BHT. A boiled cytosol control was placed at the end of each assay to emasure non-enzymatic oxidation of arachidonic acid. […] Under the assay conditions described, the 5-LO catalyzed the conversion of arachidonic acid to 5-HPETE which, as a consequence of peroxidase activity, was reduced to 5-HETE. A specific radioimmunoassay was employed to quantitate the amount (pmoles) of 5-HETE formed during the enzyme reaction. To prepare the immunogen, Dr. M. Rosenberger (Dept. of Medicinal Chemistry) converted the racemic 5-HETE lactone (Corey, E. J., and Hashimoto, S. (1981) Tet. Letters, 22, 299-302) to its hydrazine derivative. The hydrazide was conjugated to thiolated Keyhole Limpet Hemocyanin (Young, […]., and Rokach, J. (1982) Prostaglandins 23, 603-613) using N-ethyl-maleimide as previously described for LTB4 by (Young, R., N, Zomboni, R. and Rokach, J. 91983) Prostaglandins, 26, 605-613). New Zealand White rabbits received multiple intradermal injections on their backs with […] conjugate emulsified in complete Freund's adjuvant. A schedule of injections reported by Salmon (Salmon, J. A. (1978) Prostaglandins, 15, 383-397) was followed. After the monthly i.p. booster injections, blood was obtained from the marginal ear vein 5-7 days later and assessed for antibody titer. […]

Carrageenan pleurisy = assay: Carrageenan Pleurisy Test (In Vivo); parameters: species or system male Lewis rats; settings: Rattus norvegicus, po, read-out: Rat Carrageenan Pleurisy % Inhib. of Exudate Volume; for inhibition in vivo at 100 mg/kg: at 100 mg/kg p.o
Description: The animals utilized in these studies were male Lewis rats (Charles River Breeding Laboratories) weighing between 230-250 g. […] At 5 or 24 hours after CG injection, the rats were killed by decapitation, exsanguinated, and the pleural cavity exposed by cutting the ribs on both sides of the sternum. The exudate fluid was removed from the pleural cavity with disposable plastic pipettes and its volume quantitated. The pleural cavity was then washed once with phosphate buffered saline containing fetal bovine serum (1:1) and the washings combined with the exudate. The total number of cells in the pleural cavity was quantitated using a Coulter Counter (Model ZM) adjusted to exclude any contaminating RBC. (Published in "Plant Flavonoids in Biology & Medicine: Biochemical, Pharmacological and Structure-Activity Relationships" p. 231-242 (1986) Alan R. Liss, Inc.)

| SMILES | pIC50 [1] | inhibition in vivo at 100 mg/kg (Carrageenan pleurisy) [%] | other results |
| --- | --- | --- | --- |
| CCCc1c(OCCCCc2cccc(O)c2O)ccc(C(C)=O)c1O [1-[2-Hydroxy-4-[4-(2,3-dihydroxyphenyl)butoxy]-3-propylphenyl]ethanone] | – | 53 | inhibition at 0.01 µM ([1]; read-out: Inhib. of Δ^5 Lipoxygenase, % inhibition at 0.01 μM): 48% |
| CCCc1c(OCCCCCCc2ccc(C(C)C)c(O)c2O)ccc(C(C)=O)c1O [1-[2-hydroxy-4 [6-[2,3 dihydroxy-4-(1-methylethyl)phenyl]hexyloxy]-3 propylphenyl]ethanone] | – | – | inhibition at 0.1 µM [1]: 35% |
| CCCc1c(OCCCc2ccc(O)c(O)c2)ccc(C(=O)O)c1O [4-[3-(3,4-Dihydroxyphenyl)propoxy]-2-hydroxy-3-propylbenzoic acid] | – | 55 | inhibition at 1 µM [1]: 97% |
| CCCc1c(OCCCCc2cccc(O)c2O)ccc(C(=O)O)c1O [4-[4-(2,3-dihydroxyphenyl)butoxy]-2-hydroxy-3-propylbenzoic acid] | 7.05 | 76 | – |
| CCCc1c(OCCCCCCc2cccc(O)c2O)ccc(C(=O)OCC)c1O [4-[6-(2,3-Dihydroxyphenyl)hexyloxy]-2-hydroxy-3-propylbenzoic acid ethyl ester] | – | 44 | inhibition at 1 µM [1]: 100% |
| O=C(O)c1ccc(OCCCCCCc2cccc(O)c2O)cc1O [4-[6-(2,3-Dihydroxyphenyl)hexyloxy]-2-hydroxybenzoic acid] | 6.49 | 0 | – |
| O=C(O)c1ccc(OCCCCCCc2cccc(O)c2O)cc1 [4-[6-(2,3-Dihydroxyphenyl)hexyloxy]benzoic acid] | 6.77 | 46 | – |
| CCCc1c(OCCCCCCc2ccc(O)c(O)c2)ccc(C(=O)O)c1O [4-[6-(3,4-dihydroxyphenyl)hexyloxy]-2-hydroxy-3-propylbenzoic acid] | 8.30 | 0 | – |
| CCCc1c(OCCCCCCc2ccc(C(C)C)c(O)c2O)ccc(C(=O)O)c1O [4-[6-[2,3-dihydroxy-4-(1-methylethyl)phenyl]hexyloxy]-2-hydroxy-3-propylbenzoic acid] | 7.00 | – | inhibition in vivo at 75 mg/kg (Carrageenan pleurisy; at 75 mg/kg p.o): 47% |
| CCCc1c(OCCCCCCCCc2cccc(O)c2O)ccc(C(=O)O)c1O [4-[8-(2,3-dihydroxyphenyl)octyloxy]-2-hydroxy-3-propylbenzoic acid] | – | 66 | inhibition at 0.1 µM [1]: 62% |
| CCCc1c(O)c(C(=O)O)cc(Cl)c1OCCCCCCc1cccc(O)c1O [5-Chloro-2-hydroxy-4-[6-(2,3-dihydroxyphenyl]hexyloxy]-3-propylbenzoic acid] | – | – | inhibition at 0.1 µM [1]: 48%; inhibition in vivo at 50 mg/kg (Carrageenan pleurisy; at 50 mg/kg p.o): 45% |

Now from value to molecule, other results behind:

| pIC50 [1] | SMILES | inhibition in vivo at 100 mg/kg (Carrageenan pleurisy) [%] | other results |
| --- | --- | --- | --- |
| 7.52 | CCCc1c(OCCCCCCc2cccc(O)c2O)ccc(C(C)=O)c1O [1-[2-hydroxy-4-[6-(2,3-dihydroxyphenyl)hexyloxy]-3-propylphenyl]ethanone] | 51 | – |
| 8.22 | CCCc1c(OCCCCCc2cccc(O)c2O)ccc(C(=O)O)c1O [4-[5-(2,3-Dihydroxyphenyl)pentyloxy]-2-hydroxy-3-propylbenzoic acid] | 63 | – |
| 7.70 | CCCc1c(OCCCCCCc2cccc(O)c2O)ccc(C(=O)O)c1O [4-[6-(2,3-Dihydroxyphenyl)hexyloxy]-2-hydroxy-3-propylbenzoic acid] | 68 | – |
| 8.30 | CCCc1c(OCCCCCCCc2cccc(O)c2O)ccc(C(=O)O)c1O [4-[7-(2,3-dihydroxyphenyl)heptyloxy]-2-hydroxy-3-propylbenzoic acid] | 57 | – |
| 7.70 | CCCc1c(OCCCCCCCCCCc2cccc(O)c2O)ccc(C(=O)O)c1O [4-[10-(2,3-dihydroxyphenyl)decyloxy]-2-hydroxy-3-propylbenzoic acid] | 61 | – |
